Laboratory results as given in patent publication US10934346B2, “Modified T cell comprising a polynucleotide encoding an inducible stimulating molecule comprising MyD88, CD40 and FKBP12” (priority 2014, dated 2021).

Assays:
Capan-1 tumor = Capan-1 tumor xenograft in NSG mice with T cell bioluminescence imaging; assay type: in vivo
Method: FIG. 3A) Shorn mice were engrafted with Capan-1 tumor cells and treated with PSCA.ζ CAR T cells cotransduced with control vector or iMC, or non-transduced T cells, and injected i.v. on days 7 and 14. Exogenous IL-2 was given i.p. until day 21 and then withdrawn. All mice received 5 mg/kg rimiducid i.p. twice per week (biw). Tumor size was measured by calipers (FIG. 3B) and survival assessed over a 100-day period (FIG. 3C). FIG. 3D) to measure in vivo CAR T cell persistence and expansion, NSG mice were used. Mice were injected s.c. with Capan-1 tumor cells and then treated with non-transduced (NT) or FKBP and PSCA.ζ-modified T cells or iMC and PSCA.ζ-modified T cells. Mice treated with iMC-enabled T cells received 2.5 mg/kg rimiducid once (qw), twice weekly (biw) or saline only via i.p. injection. FIG. 3E) Subcutaneous tumor size was measured by calipers over a 30 day period.
FIG. 3F) In vivo bioluminescence imaging was performed on mice treated with iMC-transduced T cells receiving saline only, or with systemic rimiducid administration. […]
In vivo studies. […] Tumors were measured by calipers and tumor size calculated. […] Photon emission was analyzed by constant region-of-interest (ROI) drawn over the tumor region and the signal measured as total counts as previously validated^10. As above, efficacy was assessed by measuring tumors using calipers. […]

BLK CL4 fibroblasts = assay: IL-6 ELISA of adenovirus-transduced BLK CL4 fibroblasts with AP1903; assay type: cell-based; conditions: 100 nM AP1903
Method: BLK.CL4 fibroblasts were cultured at 175,000 cells/ml/well in 24-well plates. Adenoviruses were added at 6000, 12000, 18000, 24000 and 30000 virus/cell ratio and cells were incubated for 24 hours. Then, 100 nM of AP1903 was added to all the wells, and the following day cells and culture supernatants were harvested. A. Cells were labeled with anti-human PSMA antibody, LNI-17, (Biolegend, San Diego, Calif.) and PSMA expression was analyzed by flow cytometry. Represented is the percentage of PSMA^+ cells when compared to non-transduced cells. B. IL-6 was evaluated from the culture supernatants by ELISA (e-Bioscience, San Diego, Calif.). For FIG. 31, BLK.CL4 fibroblasts were cultured at 350,000 cells/well in 6-well plates. Adenoviruses were added at 20,000 v.p./cell ratio and cells were incubated for 24 hours. Then, 100 nM of AP1903 was added, and the following day culture supernatants were harvested. IL-6 was evaluated from the culture supernatants by ELISA (e-Bioscience, San Diego, Calif.).

[1] = tested on: T cells transduced with RV-172 (iMC); assay: AP1903-induced T cell activation, 27-plex cytokine/chemokine bead array; assay type: cell-based, human; conditions: 10 nM AP1903, 24 hours, RV-172 T cells
Method: 5. To assess AP1903-dependent T cell activation of T cells, 1×10^5 non-transduced (NT) or T cells transduced with the control retrovirus (RV-171) or the retrovirus containing iMC (RV-172) were plated in triplicate in 96-well plates and cultured at 37° C. 5% CO2 with media alone, or media containing 10 nM AP1903. 6. After 24 hours, the cells were gently mixed and the plate was centrifuged. Supernatant was then collected and plated into a BIOPLEX Human Cytokine/Chemokine 27-plex plate, which measures the following cytokines and chemokines: • a. Basic-FGF, G-CSF, GM-CSF, IFN-gamma, IL-1Ra, IL-1beta, IL-2, IL-4, IL-5, IL-6, […], IL-7, […], IL-9, IL-10, IL-12p70, IL-13, IL-15, IL-17RA, eotaxin, IP10, MCP-1, MIP-1alpha, MIP-1beta, PDGF-bb, RANTES, TNF-alpha and VEGF. • b. The cytokines and chemokines in the supernatants were subsequently measured and compared to standards in the plate using a BIOPLEX MAGPIX Multiplex Reader.
T cells were stimulated with 10 nM AP1903 for 24 hours then supernatants were assayed for cytokine levels.

CC[C@H](C(=O)N1CCCC[C@H]1C(=O)O[C@H](CCc1ccc(OC)c(OC)c1)c1cccc(OCC(=O)NCCNC(=O)COc2cccc([C@@H](CCc3ccc(OC)c(OC)c3)OC(=O)[C@@H]3CCCCN3C(=O)[C@@H](CC)c3cc(OC)c(OC)c(OC)c3)c2)c1)c1cc(OC)c(OC)c(OC)c1 (relative stereo) [rimiducid, 2-Piperidinecarboxylic acid, 1-[(2S)-1-oxo-2-(3,4,5-trimethoxyphenyl)butyl]-, 1,2-ethanediylbis [imino(2-oxo-2,1-ethanediyl)oxy-3,1-phenylene[(1R)-3-(3,4-Dimethoxyphenyl)propylidene]] ester, [2S-[1(R*),2R*[S*[S*[1(R*),2R*]]]]]-(9Cl)]
tumor control (Capan-1 tumor; rimiducid 2.5 mg/kg once or twice weekly, iMC and PSCA.ζ T cells): enabled enhanced tumor control | T cell bioluminescence (BLI) (Capan-1 tumor; systemically and at the subcutaneous tumor site): dramatic increase in T cell BLI | IL-6 production (BLK CL4 fibroblasts): response to AP1903 by producing IL-6 | cytokines and chemokines induced [1]: GM-CSF, IFN-gamma, IL-13, IL-4, IL-5, IL-6, IL-8, IL-1beta, IL-12p70, IP10, MIP-1alpha, MIP-1beta, RANTES, and TNF-alpha | cytokines and chemokines not induced [1]: Basic-FGF, G-CSF, IL-1Ra, IL-2, IL-7, IL-9, IL-10, IL-15, IL-17RA, eotaxin, MCP-1, PDGF-bb and VEGF
